The source made the active and inactive calls. How the calls were made is not given here.

The test in a line: E-selectin induction blockers, endothelial cells – imaging, retest plus dose response, cell count, confirmation (AID 1288).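 Further: 0% = stimulated vehicle wells and 100% = unstimulated vehicle wells.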 Conditions: human endothelial cells, TNFa-induced E-selectin, imaging; at 2 µM; stronger effect = higher value.
For `CCN(CC)S(=O)(=O)c1ccc2[nH]c(=O)cc(C(=O)Nc3cccc(C(C)=O)c3)c2c1`, the inhibition was 8.83% (inactive).
With `COc1ccc(-c2csc3ncnc(Oc4cccc5ccc(C)nc45)c23)cc1`, the inhibition is 5.48% (inactive).
As to `CC(C)CC(=O)n1sc(NC(=O)c2ccccc2)nc1=O`, the inhibition is -4.08% (inactive).
As to `O=C(Cc1ccc(-c2ccccc2)cc1)NCCN1CCOCC1`, the inhibition was 2.16% (inactive).
On to `CCC(C)c1ccccc1OCCCCN1CCCC1` (configuration not stated), for which the inhibition is -2.07% (inactive).
As for `COc1cccc(-c2cnc(NCc3cc(Cl)ccc3O)n2C)c1`, the inhibition was 3.22% (inactive).
With `Cc1ccc(-c2cc(NC(=O)CCl)n(-c3ccccc3)n2)cc1`, the inhibition was -2.61% (inactive).
The same measure for `C=CCN1C(c2cccc(C(F)(F)F)c2)=CS/C1=C(/C#N)c1nnc(N2CCOCC2)n1-c1ccccc1`: 31.5% (inactive); for `CS(=O)(=O)N1CCc2cc(-c3csc(NC(=O)Cc4cccs4)n3)ccc21`: 11.6% (inactive).
In the case of `CCOc1ccc(NC(=O)COC(=O)C23CC4CC(CC(C4)C2)C3)c([N+](=O)[O-])c1`, the inhibition is 1.77% (inactive).
In the case of `CN(C)S(=O)(=O)c1ccc(NS(=O)(=O)/C=C/c2ccccc2)cc1`, the inhibition is 0.79% (inactive).
As for `O=C(Nc1nnc(-c2ccco2)s1)C1CC1`, the inhibition is 1.62% (inactive).
With `Cc1cc(C)cc(C(=O)Oc2coc(CSc3nnc(NC(=O)C4CC4)s3)cc2=O)c1`, the inhibition is 6.25% (inactive).
The same measure for `O=C(NCN1C(=O)C2C3C=CC(C3)C2C1=O)Nc1nncs1` (configuration not stated): 1.86% (inactive); for `O=C(CN1CCN(c2ccccc2F)CC1)c1c[nH]c2ccccc12`: -2.26% (inactive); for `COCCN(C(=O)CCC(=O)Nc1ccccn1)C(C(=O)NC1CCCC1)c1ccc(OC)cc1` (configuration not stated): 2.57% (inactive).
For the compound `CCCCCCOC(=O)C1=C(C)NC(=O)NC1c1ccc(O)cc1` (configuration not stated), the inhibition is 13.9% (inactive).
Take `Cc1nn(-c2ccccc2)c2sc(C(=O)O)cc12`: the inhibition is 2.23% (inactive).
On to `O=C(O)CSC1c2ccccc2C(=O)N1Cc1ccccc1` (configuration not stated), for which the inhibition is 2.25% (inactive).
`COc1ccc(C(CC(=O)NCc2ccccc2)Sc2n[nH]c(-c3ccccc3)n2)cc1` (configuration not stated): the inhibition was 29.1% (inactive).
For `O=C(CN1CCN(Cc2ccccc2Cl)C1=O)NCc1ccco1`, the inhibition is 8.68% (inactive).
`CCNC(=O)CN(CCc1ccccc1)S(C)(=O)=O`: the inhibition is 7.43% (inactive).
As for `CC(=O)N[C@@H](Cc1c[nH]c2ccccc12)C(=O)OCC(=O)Nc1ccc(S(=O)(=O)N(C)C)cc1`, the inhibition was 7.84% (inactive).
On to `COc1ccc(-c2nc(CNS(=O)(=O)c3ccc(OC)c(OC)c3)cs2)cc1`, for which the inhibition was 8% (inactive).
Turning to `Cc1ccc(NC(=O)COc2ccc(-n3ccnc3)cc2)cc1Cl`, the inhibition was 9.69% (inactive).
As to `CCCCCn1c(CN2CCN(Cc3ccccc3)CC2)nc2c1c(=O)n(C)c(=O)n2C`, the inhibition is 2.55% (inactive).
Regarding `C=C(C)CC(NCCc1ccccc1)c1ccco1` (configuration not stated), the inhibition is 1.31% (inactive).
For `COC(=O)c1cc(Br)c(=O)n(Cc2ccncc2)c1` the value was 6.86% (inactive); for `O=C(c1cnccn1)N1CCN(c2ccccc2)CC1`, 30.4% (inactive).
For the compound `C=CCn1c(COc2cccc(C)c2C)nnc1SCC(=O)N1CCN(c2ccccc2)CC1`, the inhibition was 5.6% (inactive).
Take `O=C(COc1ccc([N+](=O)[O-])cc1Cl)NCCc1ccccc1`: the inhibition was -2.48% (inactive).
For `COc1ccc(NC(=O)c2ccc(CNc3c(NC4CCCCC4)c(=O)c3=O)cc2)cc1OC`, the inhibition was 3.32% (inactive).
For `CC(C)Cc1nnc(NS(C)(=O)=O)s1` the value was 4.19% (inactive).
With `CCOC(=O)c1c(NC(=O)CSc2nnc(CNc3ccc(C)cc3C)o2)sc(C)c1C`, the inhibition was 2.5% (inactive).
For `O=C(NCc1ccccc1)N1CCN(c2ccc(Cl)c(Cl)c2)CC1`, the inhibition is 15.4% (inactive).
As to `N#Cc1ccsc1NC(=O)COC(=O)c1ccc2ccccc2c1`, the inhibition is 5.46% (inactive).
The same measure for `O=C(CSc1ncccn1)NCc1ccccc1Cl`: 32.9% (inactive).
As to `OCCNCCOc1ccc(Cl)c(Cl)c1`, the inhibition is 1.74% (inactive).
For the compound `COc1ccc(N2C(=O)CCC2(C#N)c2ccc(Br)cc2)cc1` (configuration not stated), the inhibition was -2.45% (inactive).
For `CCOC(=O)C(C)Oc1cccc2c(=O)n(CC(=O)Nc3cccc(OC)c3)ccc12` (configuration not stated) the value was 22.4% (inactive); for `COc1ccccc1C1/C(=C(/O)c2ccc(C)cc2)C(=O)C(=O)N1CCN1CCOCC1` (configuration not stated), 6.7% (inactive).
Consider `COc1ccc2nc(NC(=O)CSC3=NCCS3)sc2c1`, for which the inhibition was -0.86% (inactive).
In the case of `CCn1c(SCC(=O)Nc2ccccc2OC)nnc1-c1cnccn1`, the inhibition is 6.59% (inactive).
In the case of `Cc1cc(=O)oc2cc(OCC(=O)OCC(=O)NCc3ccc4c(c3)OCO4)ccc12`, the inhibition is 22.5% (inactive).
The same measure for `Cc1nc2ccc(NC(=O)c3cc(S(=O)(=O)N4CCOCC4)ccc3C)cc2s1`: 16% (inactive); for `Cc1cc(NC(=O)CSc2nnc3c4c(C)c(C)sc4ncn23)no1`: 14.7% (inactive).
As to `CC(=O)C1=C(C)NC(SCc2cccc3ccccc23)=C(C#N)C1c1ccco1` (configuration not stated), the inhibition is 5.13% (inactive).
In the case of `Cc1ccc(N2C(=O)C3C4C=CC(CNC(=S)Nc5ccc(F)cc5)(O4)C3C2=O)cc1` (configuration not stated), the inhibition was 5.92% (inactive).
Turning to `Cc1nnc(SCC(=O)N2CC(=O)Nc3ccccc32)n1C`, the inhibition is 41% (inactive).
The same measure for `Fc1ccc(CNc2nc(-c3ccccc3)nc3ccccc23)cc1`: 26.5% (inactive); for `CC(Sc1nnc2c(n1)C1CCC2(C)C1(C)C)C(=O)Nc1ccccc1` (configuration not stated): 9.66% (inactive); for `COc1ccccc1Cc1nc(-c2ccncc2)no1`: 13.1% (inactive).
Consider `O=C(c1ccc(Cl)cc1)N1CCCC(c2ccccc2)=N1`, for which the inhibition was 10% (inactive).
Consider `Cc1ccc(C)n1-c1cccc(NC(=O)c2ccccc2)c1`, for which the inhibition is 0.87% (inactive).
For `CCOc1ccc(NC(=O)/C=C/c2ccc(OC)cc2)c([N+](=O)[O-])c1` the value was 13.8% (inactive).
As to `CCSc1nnc(-c2cccs2)o1`, the inhibition is 6.52% (inactive).
The same measure for `Cc1ccc(-n2c(=O)c3c4c(sc3n(Cc3cc(=O)n5ccccc5n3)c2=O)CCC4)cc1C`: 3.95% (inactive); for `CCN1C(=O)c2cccc3c(NC(=O)c4cccc(N5C(=O)CCC5=O)c4)ccc1c23`: 0.82% (inactive).
Turning to `CCOc1ccc(NC(=O)C2CCC(N3C(=O)C4CC=CCC4C3=O)CC2)cc1` (configuration not stated), the inhibition was 2.62% (inactive).
As to `Cc1cc(C)c2cc(CN(Cc3ccc4c(c3)OCO4)Cc3nnnn3Cc3ccco3)c(=O)[nH]c2c1`, the inhibition is -1.09% (inactive).
With `O=S(=O)(c1ccccc1)N1CCN(CC(O)COc2ccc3c(c2)CCC3)CC1` (configuration not stated), the inhibition is 4.13% (inactive).
On to `CCn1c(SCc2nc(CC(=O)Nc3ccccc3OC)no2)nnc1-c1cccs1`, for which the inhibition was 7.75% (inactive).
Regarding `CCc1ccc(N2CC(C(=O)Nc3cccnc3)CC2=O)cc1` (configuration not stated), the inhibition is 30.5% (inactive).
For the compound `COc1ccccc1NC(=O)c1ccc(S(=O)(=O)N2CCCC2)cc1`, the inhibition was 3.22% (inactive).
Regarding `COc1ccc(C2C(C(=O)Nc3cccnc3)=C(C)Nc3nc(-c4cccs4)nn32)cc1` (configuration not stated), the inhibition is 7.57% (inactive).
In the case of `Cc1ccc(NC(=O)Nc2ccc3c(c2)N(C)C(=O)CS3)nc1`, the inhibition is 3.21% (inactive).
With `Cc1cccc(NC(=O)CCSc2nc(C)cc(C)n2)c1`, the inhibition is 4.57% (inactive).
With `Cn1c(CCNC(=O)c2ccc(Cl)c(Cl)c2)nnc1SCc1ccc(Cl)c(Cl)c1`, the inhibition was 6.96% (inactive).
For `COc1ccc(C(=O)NCCNC(C)=O)cc1S(=O)(=O)NCc1ccc(Cl)cc1` the value was 14.8% (inactive); for `COc1ccc(C(=O)OCCNC(=O)c2c(Cl)nc3ccccn23)cc1`, 3.04% (inactive); for `O=c1[nH][nH]cc1C=Nc1ccc(Cl)cc1`, 46.9% (inactive).
In the case of `CC(CCc1ccccc1)NC(=O)/C=C/c1ccc(Cl)cc1` (configuration not stated), the inhibition is 14.9% (inactive).
For the compound `Nn1c(CN2CCCCC2)nc2ccccc2c1=O`, the inhibition is 12.2% (inactive).
On to `Cc1ccc2oc(=O)n(CCCOc3ccccc3)c2c1`, for which the inhibition was 26.2% (inactive).
In the case of `O=C(Cn1cc(C(=O)C(F)(F)F)c2cc(Br)ccc21)N1CCOCC1`, the inhibition is 7.56% (inactive).
For `COc1ccc(OCC(=O)N2CCN(Cc3c[nH]c4ccccc34)CC2)cc1`, the inhibition was -1.94% (inactive).
With `CS(=O)(=O)C1=NSC2=NC(=O)/C(=C\c3cccn3-c3ccc(Cl)cc3)C(=N)N21`, the inhibition was 17.3% (inactive).
Turning to `CCOc1ccc(NCc2nc3ccccc3n2CCOc2ccccc2)cc1`, the inhibition was 11.6% (inactive).
For `Cc1ccc(S(=O)(=O)Nc2ccc(NC(=O)Nc3ccc(F)cc3F)cc2)cc1`, the inhibition is 37.3% (inactive).
Regarding `Cc1ccc(-n2c(SCC(=O)Nc3nccs3)nc3c(c2=O)SCC3)cc1`, the inhibition was 5.08% (inactive).
For `COC(=O)CCC(=O)Nc1nc(-c2ccccc2)cs1` the value was 16.6% (inactive).
For `Cc1ccc(O)c(NC(=S)NC(=O)c2ccc(-c3ccc(Cl)cc3)o2)c1` the value was 20.3% (inactive).
Regarding `CSc1ccc(/C=N/NC(=O)CN2CCN(Cc3ccc(C)cc3)CC2)cc1`, the inhibition was -1.62% (inactive).
`N/C(Cc1ccc([N+](=O)[O-])cc1)=N\OC(=O)COc1ccc2ccccc2c1`: the inhibition was 12.6% (inactive).
The same measure for `CCC(=O)Nc1c(-c2ccc(OC)cc2)c(=O)c2ccccc2n1C`: 6.09% (inactive); for `NC(=O)NOCc1ccccc1`: -1.04% (inactive); for `Cc1ccc(/C=N/n2c(=O)c(C(C)(C)C)nn3cnnc23)cc1`: 6.53% (inactive).

Values taken from PubChem BioAssay AID1288 (Columbia University Molecular Screening Center, 2008).
